{"source": "paper PMC12858405", "about": "“Ideal efficacy photoswitching for chromocontrol of TRPC4/5 channel functions in live tissues” (Nature Chemical Biology, 2026)", "key": {"[1]": {"biological_target": "T1, TRPC5-V579I-SYFP2 (Homo sapiens, UniProt Q9UL62, V579I)", "T1 construct": "expressed in transfected cells; host or cells: HEK 293 (ATCC CRL 1573), transiently transfected (jetPRIME)", "T1 sequence (Q9UL62 1-973 V579I)": "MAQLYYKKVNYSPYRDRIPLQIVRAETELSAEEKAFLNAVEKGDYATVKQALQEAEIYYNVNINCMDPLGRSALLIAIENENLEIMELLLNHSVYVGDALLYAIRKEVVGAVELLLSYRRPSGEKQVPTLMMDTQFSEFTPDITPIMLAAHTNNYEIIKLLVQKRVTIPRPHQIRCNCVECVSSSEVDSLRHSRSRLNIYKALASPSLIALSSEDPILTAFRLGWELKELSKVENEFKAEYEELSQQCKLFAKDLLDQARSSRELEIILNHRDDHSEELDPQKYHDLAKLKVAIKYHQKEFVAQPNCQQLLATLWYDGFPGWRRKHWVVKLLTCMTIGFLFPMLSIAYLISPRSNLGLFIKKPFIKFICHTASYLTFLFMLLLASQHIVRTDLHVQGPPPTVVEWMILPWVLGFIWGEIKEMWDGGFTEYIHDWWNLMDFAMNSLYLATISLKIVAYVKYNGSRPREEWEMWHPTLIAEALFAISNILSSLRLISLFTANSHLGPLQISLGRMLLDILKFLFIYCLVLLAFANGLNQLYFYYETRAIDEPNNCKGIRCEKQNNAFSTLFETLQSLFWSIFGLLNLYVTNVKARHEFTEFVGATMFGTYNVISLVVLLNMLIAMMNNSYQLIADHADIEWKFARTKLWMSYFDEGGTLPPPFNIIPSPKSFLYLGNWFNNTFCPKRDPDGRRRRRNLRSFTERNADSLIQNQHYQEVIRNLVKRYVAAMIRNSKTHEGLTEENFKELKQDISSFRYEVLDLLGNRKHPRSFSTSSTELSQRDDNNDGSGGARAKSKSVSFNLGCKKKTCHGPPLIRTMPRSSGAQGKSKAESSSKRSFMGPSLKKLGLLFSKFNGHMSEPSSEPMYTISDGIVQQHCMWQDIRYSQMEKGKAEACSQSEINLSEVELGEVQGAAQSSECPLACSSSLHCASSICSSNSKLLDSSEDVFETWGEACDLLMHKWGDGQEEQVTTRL", "experiment": "Fura-2 [Ca2+]i recordings, HEK 293 transiently expressing TRPC5-V579I-SYFP2", "format": "cell-based", "conditions": "10-1000 nM; compound plate illuminated at 380 nm; EA 100 nM as maximum", "description": "(§1) Müller, Niemeyer, et al., Schaefer & Thorn-Seshold 2025: Ideal Efficacy Photoswitching of TRPC4/5 in Tissue […]\n(§2) 1.4.3 Note on TRPC4 / TRPC5 Sequence Alignment\n(§3) The key contact residues of interest in the ligand binding site are highly conserved between TRPC4 and TRPC5. The relevant sequences in the site are: […]\n(§4) 1.4.4 Differences and selectivity between TRPC5 and TRPC4?\n(§5) AM237 activates TRPC5 but inhibits EA mediated activation of TRPC4; Pico145 inhibits both TRPC4 and TRPC5. Thus, somewhat naively, it could be argued that it is the para substituent here which affects both the efficacy mode and the selectivity for TRPC4 and/or TRPC5.\n(§6) Intriguingly, Z-AzPico activates TRPC4 and TRPC5 with low nanomolar potency whereas Z-AzHC only activates TRPC5 but not TRPC4. Therefore, the meta substituent is now responsible for the selectivity in this case. The cryo-EM structures of Pico145 and HC-070 in complex with TRPC5 indicated the same binding site but the southern phenyl ring bearing the OCF3/Cl group is flipped and pointing in opposite directions.\n(§7) Z isomers, i.e. Z-buried vs. E-projected. Additionally, both E-AzPico and E-AzHC inhibit EA […]\n(§8) Intracellular calcium ([Ca2+]i) was measured using the ratiometric Ca2+ dye Fura-2. […]"}, "[2]": {"biological_target": "T2, TRPC4β-I575V-SYFP2 (Homo sapiens, UniProt Q9UBN4, I575V)", "T2 construct": "expressed in transfected cells; host or cells: HEK 293 (ATCC CRL 1573), transiently transfected (jetPRIME)", "T2 sequence (Q9UBN4 other isoform, or with tags, fused parts or gaps I575V)": "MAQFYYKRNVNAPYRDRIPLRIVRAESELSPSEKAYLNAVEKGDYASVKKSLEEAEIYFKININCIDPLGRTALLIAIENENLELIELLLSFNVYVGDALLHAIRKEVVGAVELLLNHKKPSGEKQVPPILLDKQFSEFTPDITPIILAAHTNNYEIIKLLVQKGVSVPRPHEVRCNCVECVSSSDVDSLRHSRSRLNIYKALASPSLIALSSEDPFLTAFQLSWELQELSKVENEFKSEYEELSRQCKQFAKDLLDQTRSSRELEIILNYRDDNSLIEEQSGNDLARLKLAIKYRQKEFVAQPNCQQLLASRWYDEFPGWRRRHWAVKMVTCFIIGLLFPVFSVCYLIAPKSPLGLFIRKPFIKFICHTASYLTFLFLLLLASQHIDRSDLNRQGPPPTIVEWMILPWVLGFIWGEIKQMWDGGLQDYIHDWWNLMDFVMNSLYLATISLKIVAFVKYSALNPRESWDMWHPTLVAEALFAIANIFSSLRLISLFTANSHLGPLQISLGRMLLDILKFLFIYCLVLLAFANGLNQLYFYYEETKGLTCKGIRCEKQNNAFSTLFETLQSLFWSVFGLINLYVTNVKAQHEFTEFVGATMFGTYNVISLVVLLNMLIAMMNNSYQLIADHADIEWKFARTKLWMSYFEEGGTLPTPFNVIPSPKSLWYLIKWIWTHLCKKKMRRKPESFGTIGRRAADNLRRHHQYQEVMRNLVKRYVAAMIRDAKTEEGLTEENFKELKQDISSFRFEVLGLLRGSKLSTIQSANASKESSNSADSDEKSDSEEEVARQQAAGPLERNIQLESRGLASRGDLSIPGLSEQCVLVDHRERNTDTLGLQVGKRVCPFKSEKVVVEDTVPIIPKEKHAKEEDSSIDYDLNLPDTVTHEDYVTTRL", "experiment": "Fura-2 [Ca2+]i recordings, HEK 293 transiently expressing TRPC4β-I575V-SYFP2", "format": "cell-based", "conditions": "AzHC 10-1000 nM, AM237 100 nM", "description": "as §1, §2, §3, §4, §5, §6, §7, §8"}}}
{"smiles": "Cn1c(=O)n(CCCO)c(=O)c2c1nc(Oc1ccc(/N=N\\c3ccccc3)c(Cl)c1)n2Cc1ccc(Cl)cc1", "note": "[Z*-AzHC]", "values": [{"measurement": "Effect on [Ca2+]i, TRPC5V579I", "setting": "[1]", "result": "partial agonists"}, {"measurement": "Effect on [Ca2+]i, TRPC4I575V", "setting": "[2]", "result": "do not activate"}]}
{"smiles": "Cn1c(=O)n(CCCO)c(=O)c2c1nc(Oc1ccc(Cl)c(OC(F)(F)F)c1)n2Cc1ccc(Cl)cc1", "note": "[AM237, reference compound]", "values": [{"measurement": "Effect on [Ca2+]i, TRPC5V579I", "setting": "[1]", "result": "partial agonists"}, {"measurement": "Effect on [Ca2+]i, TRPC4I575V", "setting": "[2]", "result": "do not activate"}]}
